{"source": "patent US20230234936A1", "about": "“COMPOUND FOR TARGETING AND DEGRADING PROTEIN, AND PREPARATION METHOD THEREFOR AND USE THEREOF” (SHANGHAI LEADINGTAC PHARMACEUTICAL CO., LTD., priority 2020, published 2023)", "key": {"IRAK4 kinase": {"molecular_target": "T1, IRAK4 kinase (Homo sapiens, UniProt Q9NWZ3)", "T1 sequence (Q9NWZ3 1-460)": "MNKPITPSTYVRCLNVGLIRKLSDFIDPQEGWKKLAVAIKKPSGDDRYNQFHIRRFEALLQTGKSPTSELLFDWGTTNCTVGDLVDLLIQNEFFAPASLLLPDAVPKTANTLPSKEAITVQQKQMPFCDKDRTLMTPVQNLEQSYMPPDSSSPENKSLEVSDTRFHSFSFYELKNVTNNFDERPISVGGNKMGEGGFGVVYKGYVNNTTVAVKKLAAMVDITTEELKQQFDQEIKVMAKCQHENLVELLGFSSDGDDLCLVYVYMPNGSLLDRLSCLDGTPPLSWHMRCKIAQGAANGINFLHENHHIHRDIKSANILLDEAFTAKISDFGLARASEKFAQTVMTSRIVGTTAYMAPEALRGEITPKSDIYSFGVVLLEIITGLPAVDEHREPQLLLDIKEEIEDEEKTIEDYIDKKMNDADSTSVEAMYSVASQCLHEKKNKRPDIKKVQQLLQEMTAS", "assay": "IRAK4 kinase activity test (KinEASE-STK S1 HTRF kit)", "format": "biochemical", "conditions": "2.5 nM kinase, 1 μM biotinylated polypeptide substrate, 7 μM ATP, 37° C. 120 min", "outline": "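Compound in DMSO, serially diluted to 10000–0.038 nM final, incubated with 2.5 nM kinase, 1 μM biotinylated peptide substrate and 7 μM ATP at 37° C for 120 min. Eu-anti-phospho-Ser/Thr antibody plus streptavidin-XL665 stopped the reaction (1 h RT). HTRF 665/620 nm ratio gave % inhibition versus control; IC50 from nonlinear log-concentration fit.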"}, "[1]": {"molecular_target": "T2, IRAK4 protein in THP-1 cells (Homo sapiens, UniProt Q9NWZ3)", "T2 construct": "endogenous in cells; host or cells: THP-1", "T2 sequence (Q9NWZ3 1-460)": "T1 sequence (Q9NWZ3 1-460)", "assay": "Degradation of IRAK4 in THP-1 cells (Western blot)", "format": "cell-based", "conditions": "24 hours, compound 1-3000 nM", "outline": "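THP-1 cells (5×10^5/well) treated 24 h with compound at 1–3000 nM final. IRAK4 in lysates quantified by Western blot, normalized to internal reference and compared with control to give degradation rate; DC50 and Dmax from nonlinear fit of log concentration.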"}, "IKZF1 in L363 cells": {"molecular_target": "T3, IKZF1 in L363 cells (Homo sapiens, UniProt Q13422+Q96SW2)", "T3 construct": "endogenous in cells; host or cells: L363", "T3 sequence (Q13422 whole entry)": "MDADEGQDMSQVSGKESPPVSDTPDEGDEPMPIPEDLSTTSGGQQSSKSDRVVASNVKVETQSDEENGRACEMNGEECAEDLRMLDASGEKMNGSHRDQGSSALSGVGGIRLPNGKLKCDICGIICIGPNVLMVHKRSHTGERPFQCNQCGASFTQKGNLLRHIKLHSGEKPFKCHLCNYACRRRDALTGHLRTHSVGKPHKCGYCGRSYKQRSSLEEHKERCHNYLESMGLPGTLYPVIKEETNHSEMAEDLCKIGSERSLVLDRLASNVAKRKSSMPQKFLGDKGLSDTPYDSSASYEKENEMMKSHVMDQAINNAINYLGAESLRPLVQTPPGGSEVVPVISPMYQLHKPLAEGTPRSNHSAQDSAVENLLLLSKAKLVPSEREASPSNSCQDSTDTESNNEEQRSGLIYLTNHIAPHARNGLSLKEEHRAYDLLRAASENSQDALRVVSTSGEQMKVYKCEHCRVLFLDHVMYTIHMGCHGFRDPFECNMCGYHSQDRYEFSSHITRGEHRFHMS", "T3 sequence (Q96SW2 whole entry)": "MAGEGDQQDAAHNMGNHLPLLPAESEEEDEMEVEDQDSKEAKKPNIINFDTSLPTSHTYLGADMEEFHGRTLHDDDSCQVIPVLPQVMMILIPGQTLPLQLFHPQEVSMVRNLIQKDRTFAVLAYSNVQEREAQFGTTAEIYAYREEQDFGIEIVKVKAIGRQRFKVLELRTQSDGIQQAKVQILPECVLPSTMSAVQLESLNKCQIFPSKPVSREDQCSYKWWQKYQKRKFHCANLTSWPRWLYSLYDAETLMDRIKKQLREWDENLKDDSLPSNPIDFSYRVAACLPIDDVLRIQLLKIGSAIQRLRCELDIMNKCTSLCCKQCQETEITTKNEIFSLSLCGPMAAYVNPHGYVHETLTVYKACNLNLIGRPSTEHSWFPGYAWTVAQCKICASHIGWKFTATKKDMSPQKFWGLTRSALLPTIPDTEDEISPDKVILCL", "T3 sequence (Q16531 whole entry partner)": "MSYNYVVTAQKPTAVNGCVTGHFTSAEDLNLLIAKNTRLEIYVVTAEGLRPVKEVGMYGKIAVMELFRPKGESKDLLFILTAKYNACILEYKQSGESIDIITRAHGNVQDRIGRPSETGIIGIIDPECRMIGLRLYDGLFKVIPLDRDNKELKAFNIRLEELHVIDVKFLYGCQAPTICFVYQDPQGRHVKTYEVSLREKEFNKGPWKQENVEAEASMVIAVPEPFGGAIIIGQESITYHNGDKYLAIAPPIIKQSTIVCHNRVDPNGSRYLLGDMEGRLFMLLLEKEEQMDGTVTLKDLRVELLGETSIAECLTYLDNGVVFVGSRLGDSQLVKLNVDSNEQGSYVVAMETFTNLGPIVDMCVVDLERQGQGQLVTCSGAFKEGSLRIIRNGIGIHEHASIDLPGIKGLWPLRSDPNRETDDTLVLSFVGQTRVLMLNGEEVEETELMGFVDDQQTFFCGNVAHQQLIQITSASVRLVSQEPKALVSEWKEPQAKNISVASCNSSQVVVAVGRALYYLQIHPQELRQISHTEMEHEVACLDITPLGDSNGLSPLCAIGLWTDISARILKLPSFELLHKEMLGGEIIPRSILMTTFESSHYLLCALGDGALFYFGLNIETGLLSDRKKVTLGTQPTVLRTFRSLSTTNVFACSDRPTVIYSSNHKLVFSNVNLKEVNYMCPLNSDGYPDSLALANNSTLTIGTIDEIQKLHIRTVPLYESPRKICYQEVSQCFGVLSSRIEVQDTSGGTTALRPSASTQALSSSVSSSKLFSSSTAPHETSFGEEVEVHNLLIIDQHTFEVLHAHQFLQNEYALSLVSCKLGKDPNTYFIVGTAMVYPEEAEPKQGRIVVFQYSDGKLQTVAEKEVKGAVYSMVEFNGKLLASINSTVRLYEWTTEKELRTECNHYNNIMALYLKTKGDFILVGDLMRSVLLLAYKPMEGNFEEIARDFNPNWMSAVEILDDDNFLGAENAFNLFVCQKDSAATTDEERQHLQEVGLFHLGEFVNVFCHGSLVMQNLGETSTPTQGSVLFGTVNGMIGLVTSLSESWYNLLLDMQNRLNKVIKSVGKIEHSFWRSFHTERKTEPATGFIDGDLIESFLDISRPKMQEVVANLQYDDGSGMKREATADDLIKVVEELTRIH", "assay": "Degradation of IKZF1 in L363 cells (Western blot)", "format": "cell-based", "conditions": "1000 nM, 16 hours", "description": "(§1) The 24-well cell culture plate was inoculated with 0.95 mL L363 cells (Nanjing Co-bioer) per well with a cell density of 6×10^5 cells/well. The cell plate was placed in a 5% carbon dioxide incubator and cultured at 37° C. for 8 hours, then 50 μL of compound solution was added. The final concentration of the compound was 1000 nM. After continuing to culture for 16 hours, the cells were collected into a 1.5 mL centrifuge tube and centrifuged at 3000 rpm and 4° C. for 5 minutes. Cell precipitation was cleaned twice with 1×DPBS, resuspended cells were lysed with 100 μL lysate (cell lysate was Western and IP cell lysate (Beyotime), supplemented with 1 mM mixture of phenylmethylsulfonyl fluoride and protease inhibitor (Beyotime)), left on ice for 30 minutes, then centrifuged at 14000 g at 4° C. for 10 minutes, and the supernatant was taken to detect IKZF1 and IKZF3 protein level by Western blot.\n(§2) The total protein concentration in the supernatant of cell lysis was determined by BCA protein quantitative kit (Tiangen). According to the concentration of total protein detected by BCA, the supernatant was adjusted to 0.2 μg/μL with PBS and 5× SDS-PAGE protein loading buffer (Beyotime), bathed in water at 100° C. for 10 minutes, then placed in ice bath for 5 minutes, centrifuged at 14000 g and 4° C. for 5 minutes, and then collected as WB loading sample. Prefabricated glue (KeyGEN) was used for protein electrophoresis with a loading amount of 10 μL (total protein 2 μg). After Tris-MOPS-SDS electrophoresis solution (Adamas), 120V constant pressure electrophoresis was performed. After electrophoresis, the protein on the adhesive strip was transferred to PVDF membrane with a constant current of […] for 50 minutes. After the membrane was transferred, the membrane was incubated in 5% bovine serum albumin solution for 2 hours at room temperature. After blocking, PVDF membranes were incubated with IKZF1 primary antibody (CST) and IKZF3 primary antibody (Abcam) overnight at 4°, the membranes were washed with TBST buffer (2.4 g Tris, 8.8 g NaCl, 1.5 mL Tween 20, pH adjusted to 7.4, constant volume to IL) for 30 minutes, incubated with secondary antibody (Abcam) for 2 hours at room temperature, finally incubated with Clarity Western ECL Substrate(BIO-RAD) for 5 minutes for luminescence development, chemiluminescence imaging system (Clinx, chemiScope 6200 Touch) for development and protein mapping photography. The protein map was analyzed by Clinx chemiluminescence analysis software for grayscale values. Using the formula: grayscale correction value=(target protein grayscale value/corresponding internal reference grayscale value)×10^3, the grayscale correction value of each sample was calculated. The degradation rate was calculated by comparing with the grayscale correction value of the control group."}, "IKZF3 in L363 cells": {"molecular_target": "T4, IKZF3 in L363 cells (Homo sapiens, UniProt Q96SW2+Q9UKT9)", "T4 construct": "endogenous in cells; host or cells: L363", "T4 sequence (Q9UKT9 whole entry)": "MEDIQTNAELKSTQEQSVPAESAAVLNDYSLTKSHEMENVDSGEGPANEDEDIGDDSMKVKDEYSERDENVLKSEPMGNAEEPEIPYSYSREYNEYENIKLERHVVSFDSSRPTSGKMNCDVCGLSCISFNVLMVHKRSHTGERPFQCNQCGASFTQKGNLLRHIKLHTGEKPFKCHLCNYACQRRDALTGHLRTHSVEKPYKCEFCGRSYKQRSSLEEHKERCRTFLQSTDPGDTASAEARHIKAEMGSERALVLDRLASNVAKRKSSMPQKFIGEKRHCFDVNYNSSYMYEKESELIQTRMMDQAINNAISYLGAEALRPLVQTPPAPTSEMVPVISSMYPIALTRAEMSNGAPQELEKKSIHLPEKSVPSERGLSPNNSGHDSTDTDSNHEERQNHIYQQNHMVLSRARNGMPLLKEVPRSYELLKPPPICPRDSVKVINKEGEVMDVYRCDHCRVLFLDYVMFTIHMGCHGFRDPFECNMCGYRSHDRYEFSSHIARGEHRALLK", "T4 sequence (Q96SW2 whole entry)": "as the sequence (Q96SW2 whole entry) above", "T4 sequence (Q16531 whole entry partner)": "as the sequence (Q16531 whole entry partner) above", "assay": "Degradation of IKZF3 in L363 cells (Western blot)", "format": "cell-based", "conditions": "1000 nM, 16 hours", "description": "as §1, §2"}}, "data": [{"molecule": "CC(C)(O)c1cc2nn(C3CCN(CCC4CCC5(CC4)CCN(C(=O)c4ccc(F)c(C6CCC(=O)NC6=O)c4)CC5)CC3)cc2cc1NC(=O)c1cccc(C(F)(F)F)n1", "note": "(centres unmarked) [Example 40, N-(2-(1-(2-(3-(3-(2,6-dioxopiperidin-3-yl)-4-fluoro-benzoyl)-3-azaspiro [5.5]undec-9-yl)ethyl)piperidin-4-yl)-6-(2-hydroxyprop-2-yl)-2H-indazol-5-yl)-6-(trifluoro-methyl) pyridinecarbox-amide]", "values": [{"measurement": "IC50", "setting": "IRAK4 kinase", "value": 35.1, "unit": "nM"}, {"measurement": "DC50", "setting": "[1]", "value": 4.8, "unit": "nM"}, {"measurement": "Dmax", "setting": "[1]", "value": 98, "unit": "%"}, {"measurement": "IKZF1 degradation rate", "setting": "IKZF1 in L363 cells", "value": "53.8 ± 2.0", "unit": "%"}, {"measurement": "IKZF3 degradation rate", "setting": "IKZF3 in L363 cells", "value": "9.8 ± 2.0", "unit": "%"}]}]}
